According to ChEMBL document CHEMBL1201862, “PubChem BioAssay data set” (2004):
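Step 1: Grow cells in 96-well plates. Step 2: Expose to compound for 48 hours at 5 concentrations. Step 3: Interpolate endpoints linearly; if unreached, use highest concentration. The concentration for 50% growth inhibition is given as GI50.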 Calls of active or inactive are those of the source. No stated cut-off is given here; in the data, active = GI50 up to about 1.1 µM and inactive = higher.

What was measured:
Experiment in all cases: DTP human tumour cell line panel, 48 h
[1] = test system: 786-0
[2] = test system: A498
[3] = test system: A549
[4] = test system: ACHN
[5] = test system: BT-549
[6] = test system: CAKI-1
[7] = test system: CCRF-CEM
[8] = test system: COLO 205
[9] = test system: DU-145
[10] = test system: HCT-116
[11] = test system: HCT-15
[12] = test system: HL-60
[13] = test system: HOP-62
[14] = test system: HOP-92
[15] = test system: HT-29
[16] = test system: Hs-578T
[17] = test system: IGROV-1
[18] = test system: K562
[19] = test system: KM12
[20] = test system: LOX IMVI
[21] = test system: M14
[22] = test system: MCF7
[23] = test system: MDA-MB-231
[24] = test system: MDA-MB-435
[25] = test system: MDA-N
[26] = test system: MOLT-4
[27] = test system: Malme-3M
[28] = test system: NCI-H226
[29] = test system: NCI-H23
[30] = test system: NCI-H460
[31] = test system: NCI-H522
[32] = test system: NCI/ADR-RES
[33] = test system: OVCAR-4
[34] = test system: OVCAR-5
[35] = test system: OVCAR-8
[36] = test system: PC-3
[37] = test system: RPMI-8226
[38] = test system: RXF 393
[39] = test system: SF-268
[40] = test system: SF-295
[41] = test system: SF-539
[42] = test system: SK-MEL-28
[43] = test system: SK-MEL-2
[44] = test system: SK-MEL-5
[45] = test system: SK-OV-3
[46] = test system: SN12C
[47] = test system: SNB-19
[48] = test system: SNB-75
[49] = test system: SW-620
[50] = test system: T47D
[51] = test system: TK-10
[52] = test system: U-251
[53] = test system: UACC-257
[54] = test system: UACC-62
[55] = test system: UO-31
[56] = test system: EKVX
[57] = test system: HCC 2998
[58] = test system: OVCAR-3

Which GI50 [1] does the source give for `O=c1/c(=C/c2ccc(-c3ccc(Cl)cc3Cl)o2)sc2n1[C@@H](c1ccc3c(c1)OCO3)C=C(c1cc(F)c(Cl)cc1Cl)N=2` here?
Its GI50 is 42.9 µM (inactive).

And the GI50 [2]?
The GI50 was 2.26 µM (inactive).

And the GI50 [3]?
Its GI50 is 46.1 µM (inactive).

And the GI50 [4]?
The GI50 was 69.2 µM (inactive).

And the GI50 [5]?
Its GI50 is 37.8 µM (inactive).

What about the GI50 [6] of the same compound?
Its GI50 is > 100 µM (inactive).

What about the GI50 [7] of the same compound?
The GI50 was 38.7 µM (inactive).

And the GI50 [8]?
The GI50 was 38.7 µM (inactive).

And the GI50 [9]?
The GI50 was 63.7 µM (inactive).

What about the GI50 [10] of the same compound?
The GI50 was 35.4 µM (inactive).

What about the GI50 [11] of the same compound?
Its GI50 is 34.1 µM.

What about the GI50 [12] of the same compound?
Its GI50 is 27.2 µM (inactive).

And the GI50 [13]?
The GI50 was 5.87 µM (inactive).

And the GI50 [14]?
Its GI50 is 31.1 µM (inactive).

What about the GI50 [15] of the same compound?
Its GI50 is 25.6 µM (inactive).

And the GI50 [16]?
The GI50 was 14 µM (inactive).

What about the GI50 [17] of the same compound?
The GI50 was 34.3 µM (inactive).

And the GI50 [18]?
Its GI50 is 35.2 µM (inactive).

What about the GI50 [19] of the same compound?
Its GI50 is 57.5 µM (inactive).

What about the GI50 [20] of the same compound?
Its GI50 is 34.8 µM (inactive).

And the GI50 [21]?
The GI50 was 28 µM (inactive).

What about the GI50 [22] of the same compound?
The GI50 was 26 µM (inactive).

What about the GI50 [23] of the same compound?
Its GI50 is 22.6 µM (inactive).

And the GI50 [24]?
Its GI50 is 33.2 µM (inactive).

What about the GI50 [25] of the same compound?
Its GI50 is 37.8 µM (inactive).

What about the GI50 [26] of the same compound?
The GI50 was 28.2 µM (inactive).

And the GI50 [27]?
Its GI50 is > 100 µM (inactive).

What about the GI50 [28] of the same compound?
Its GI50 is 20.7 µM (inactive).

What about the GI50 [29] of the same compound?
Its GI50 is 38.5 µM (inactive).

What about the GI50 [30] of the same compound?
The GI50 was 37 µM (inactive).

What about the GI50 [31] of the same compound?
The GI50 was 49.1 µM (inactive).

What about the GI50 [32] of the same compound?
The GI50 was 45.9 µM (inactive).

And the GI50 [33]?
Its GI50 is 33.3 µM (inactive).

And the GI50 [34]?
The GI50 was 58.7 µM (inactive).

What about the GI50 [35] of the same compound?
The GI50 was 42 µM (inactive).

And the GI50 [36]?
The GI50 was 69 µM (inactive).

What about the GI50 [37] of the same compound?
Its GI50 is 26.1 µM (inactive).

What about the GI50 [38] of the same compound?
Its GI50 is 39.4 µM (inactive).

And the GI50 [39]?
The GI50 was 46.3 µM (inactive).

And the GI50 [40]?
The GI50 was 40.7 µM (inactive).

What about the GI50 [41] of the same compound?
The GI50 was 35.3 µM (inactive).

And the GI50 [42]?
Its GI50 is 91.8 µM (inactive).

What about the GI50 [43] of the same compound?
Its GI50 is 26 µM (inactive).

And the GI50 [44]?
Its GI50 is 28.5 µM (inactive).

What about the GI50 [45] of the same compound?
The GI50 was 21.5 µM (inactive).

And the GI50 [46]?
Its GI50 is 57.3 µM (inactive).

What about the GI50 [47] of the same compound?
The GI50 was 28.8 µM (inactive).

What about the GI50 [48] of the same compound?
Its GI50 is > 100 µM (inactive).

And the GI50 [49]?
The GI50 was 35.8 µM (inactive).

What about the GI50 [50] of the same compound?
The GI50 was 21.1 µM (inactive).

What about the GI50 [51] of the same compound?
Its GI50 is 7.78 µM (inactive).

And the GI50 [52]?
The GI50 was 29.4 µM (inactive).

And the GI50 [53]?
Its GI50 is 22.6 µM (inactive).

What about the GI50 [54] of the same compound?
The GI50 was 16 µM (inactive).

What about the GI50 [55] of the same compound?
The GI50 was 31.7 µM (inactive).

How did the GI50 [1] turn out when `COc1ccc(/C=C2\Sc3nnc(C)n3N=C2c2cc(F)c(Cl)cc2Cl)cc1OC` was run?
Its GI50 is 2.97 µM (inactive).

What about the GI50 [2] of the same compound?
The GI50 was 19.3 µM (inactive).

What about the GI50 [3] of the same compound?
The GI50 was 21.2 µM (inactive).

And the GI50 [4]?
The GI50 was 12.6 µM (inactive).

And the GI50 [5]?
Its GI50 is 17.8 µM (inactive).

And the GI50 [6]?
The GI50 was 8.13 µM (inactive).

What about the GI50 [7] of the same compound?
Its GI50 is 4.18 µM (inactive).

And the GI50 [8]?
Its GI50 is 22.3 µM (inactive).

What about the GI50 [9] of the same compound?
The GI50 was 14.7 µM (inactive).

What about the GI50 [56] of the same compound?
The GI50 was 10.8 µM (inactive).

And the GI50 [57]?
The GI50 was 17.6 µM (inactive).

And the GI50 [10]?
The GI50 was 5.98 µM (inactive).

And the GI50 [11]?
The GI50 was 6.93 µM.

And the GI50 [12]?
The GI50 was 8.95 µM (inactive).

And the GI50 [13]?
The GI50 was 17 µM (inactive).

And the GI50 [14]?
Its GI50 is 13.8 µM (inactive).

What about the GI50 [15] of the same compound?
Its GI50 is 13.2 µM (inactive).

And the GI50 [16]?
Its GI50 is 41.9 µM (inactive).

And the GI50 [17]?
Its GI50 is 16 µM (inactive).

What about the GI50 [18] of the same compound?
The GI50 was 3.09 µM (inactive).

And the GI50 [19]?
The GI50 was 15.2 µM (inactive).

What about the GI50 [20] of the same compound?
The GI50 was 13.8 µM (inactive).

And the GI50 [21]?
Its GI50 is 13.6 µM (inactive).

And the GI50 [22]?
Its GI50 is 5.87 µM (inactive).

What about the GI50 [23] of the same compound?
Its GI50 is 26.4 µM (inactive).

What about the GI50 [24] of the same compound?
The GI50 was 10.4 µM (inactive).

What about the GI50 [25] of the same compound?
The GI50 was 5.32 µM (inactive).

What about the GI50 [26] of the same compound?
The GI50 was 3.35 µM (inactive).

What about the GI50 [27] of the same compound?
Its GI50 is 18.3 µM (inactive).

And the GI50 [28]?
Its GI50 is 23.2 µM (inactive).

And the GI50 [29]?
Its GI50 is 12.4 µM (inactive).

What about the GI50 [30] of the same compound?
Its GI50 is 20.8 µM (inactive).

What about the GI50 [31] of the same compound?
The GI50 was 11.3 µM (inactive).

And the GI50 [32]?
Its GI50 is 14.6 µM (inactive).

And the GI50 [58]?
Its GI50 is 4.52 µM (inactive).

And the GI50 [33]?
Its GI50 is 13.2 µM (inactive).

What about the GI50 [34] of the same compound?
Its GI50 is 15.6 µM (inactive).

And the GI50 [35]?
The GI50 was 15.5 µM (inactive).

And the GI50 [36]?
Its GI50 is 18.7 µM (inactive).

And the GI50 [37]?
Its GI50 is 2.58 µM (inactive).

What about the GI50 [38] of the same compound?
Its GI50 is 15.9 µM (inactive).

What about the GI50 [39] of the same compound?
The GI50 was 22.4 µM (inactive).

What about the GI50 [40] of the same compound?
Its GI50 is 22.1 µM (inactive).

And the GI50 [41]?
The GI50 was 17 µM (inactive).

What about the GI50 [42] of the same compound?
The GI50 was 23.3 µM (inactive).

And the GI50 [43]?
The GI50 was 15.9 µM (inactive).

And the GI50 [44]?
The GI50 was 18.8 µM (inactive).

What about the GI50 [45] of the same compound?
The GI50 was 30.1 µM (inactive).

And the GI50 [46]?
The GI50 was 17.5 µM (inactive).

What about the GI50 [47] of the same compound?
Its GI50 is 1.19 µM (inactive).

What about the GI50 [49] of the same compound?
The GI50 was 5.33 µM (inactive).

What about the GI50 [50] of the same compound?
Its GI50 is 24.8 µM (inactive).

And the GI50 [51]?
The GI50 was 17.9 µM (inactive).

And the GI50 [52]?
The GI50 was 15.8 µM (inactive).

And the GI50 [53]?
Its GI50 is 17 µM (inactive).

What about the GI50 [54] of the same compound?
The GI50 was 16.7 µM (inactive).

What about the GI50 [55] of the same compound?
Its GI50 is 10.4 µM (inactive).
